Source: patent US20040260318A1, “Anastomotic connector devices” (Angiotech International AG, priority 2003, published 2004)

Columns and labels:
collagenase expression = experiment: Effect of other anti-microtubule agents on IL-1-induced collagenase expression in primary chondrocytes; assay type: cell-based, calf; conditions: pre-incubation of chondrocytes 6 hours, then IL-1 20 ng/ml 18 hours; FIGS. 7A-H
Method: Primary chondrocyte cultures were freshly isolated from calf cartilage. The cells were plated at 2.5×10^6 per ml in 100×20 mm culture dishes and incubated in Ham's F12 medium containing 5% FBS overnight at 37° C. The cells were starved in serum-free medium overnight and then treated with anti-microtubule agents at various concentrations for 6 hours. IL-1 (20 ng/ml) was then added to each plate and the plates incubated for an additional 18 hours. Total RNA was isolated by the acidified guanidine isothiocyanate method and subjected to electrophoresis on a denatured gel. Denatured RNA samples (15 μg) were analyzed by gel electrophoresis in a 1 % denatured gel, transferred to a nylon membrane and hydridized with the ^32P-labeled collagenase cDNA probe. ^32P-labeled glyceraldehyde phosphate […] (GAPDH) cDNA as an internal standard to ensure roughly equal loading. The exposed films were scanned and quantitatively analyzed with ImageQuant.

human fibroblasts = experiment: Screening assay for effect on cell proliferation (CYQUANT fluorescence); assay type: cell-based; conditions: Fibroblast, 72 hours incubation, FIG. 2
Method: Fibroblasts at 70-90% confluency are trypsinized, replated at 600 cells/well in media in 96-well plates and allowed to attachment overnight. Mitoxantrone is prepared in DMSO at a concentration of 10^−2 M and diluted 10-fold to give a range of stock concentrations (10^−8 M to 10^−2 M). Drug dilutions are diluted 1/1000 in media and added to cells to give a total volume of 200 μL/well. Each drug concentration is tested in triplicate wells. Plates containing fibroblasts and mitoxantrone are incubated at 37° C. for 72 hours (In vitro toxicol. (1990) 3:219; Biotech. Histochem. (1993) 68: 29; Anal. Biochem. (1993) 213:426).
To terminate the assay, the media is removed by gentle aspiration. A 1/400 dilution of CYQUANT 400× GR dye indicator (Molecular Probes; Eugene, Ore.) is added to […] Cell Lysis buffer, and 200 μL of the mixture is added to the wells of the plate. Plates are incubated at room temperature, protected from light for 3-5 minutes. Fluorescence is read in a fluorescence microplate reader at ˜480 nm excitation wavelength and ˜520 nm emission maxima. […] An average of n=4 replicate experiments is used to determine IC50 values.

[1] = tested on: MCP-1 production by THP-1 cells; experiment: MCP-1 production by macrophages (opsonized zymosan stimulated, ELISA); assay type: cell-based; conditions: Homo sapiens, 24 hours, 1 mg/mL opsonized zymosan, FIG. 11
Method: (§1) The human macrophage cell line, THP-1 is plated in a 12 well plate such that each well contains 1×10^6 cells in 2 mL of media containing 10% FCS. Opsonized zymosan is prepared by resuspending 20 mg of zymosan A in 2 mL of ddH2O and homogenizing until a uniform suspension is obtained. Homogenized zymosan is pelleted at 250 g and resuspended in 4 mL of human serum for a final concentration of 5 mg/mL. and incubated in a 37° C. water bath for 20 minutes to enable opsonization. Geldanamycin is prepared in DMSO at a concentration of 10^−2 M and serially diluted 10-fold to give a range of stock concentrations (10^−8 M to 10^−2 M).
THP-1 cells are stimulated to produce MCP-1 by the addition of 1 mg/mL opsonized zymosan. Geldanamycin is added to THP-1 cells by directly adding DMSO stock solutions, prepared earlier, at a 1/1000 dilution, to each well. […]
After a 24 hour stimulation, supernatants are collected to quantify MCP-1 production. MCP-1 concentrations in the supernatants are determined by ELISA using recombinant human MCP-1 to obtain a standard curve. […] The dilution of Capture Antibody used is lot-specific and is determined empirically. […] Stop Solution (2 N H2SO4) is then added to the wells and a yellow colour reaction is read at 450 nm with λ correction at 570 nm. Mean absorbance is determined from triplicate data readings and the mean background is subtracted. […]

[2] = tested on: IL-8 production by THP-1 cells; experiment: IL-8 production by macrophages (opsonized zymosan stimulated, ELISA); assay type: cell-based; conditions: Homo sapiens, 24 hours, 1 mg/mL opsonized zymosan, FIG. 10
Method: as §1
THP-1 cells are stimulated to produce IL-8 by the addition of 1 mg/mL opsonized zymosan. Geldanamycin is added to THP-1 cells by directly adding DMSO stock solutions, prepared earlier, at a 1/1000 dilution, to each well. […]
After a 24 hour stimulation, supernatants are collected to quantify IL-8 production. IL-8 concentrations in the supernatants are determined by ELISA using recombinant human IL-8 to obtain a standard curve. […] The dilution of Capture Antibody used is lot-specific and is determined empirically. […] Stop Solution (2 N H2SO4) is then added to the wells and a yellow colour reaction is read at 450 nm with λ correction at 570 nm. Mean absorbance is determined from triplicate data readings and the mean background is subtracted. […]

[3] = tested on: IL-1β production by THP-1 cells; experiment: IL-1β production by macrophages (opsonized zymosan stimulated, ELISA); assay type: cell-based; conditions: Homo sapiens, 24 hours, 1 mg/mL opsonized zymosan, FIG. 9
Method: as §1
THP-1 cells are stimulated to produce IL-1β by the addition of 1 mg/mL opsonized zymosan. Geldanamycin is added to THP-1 cells by directly adding DMSO stock solutions, prepared earlier, at a 1/1000 dilution, to each well. […]
After a 24 hour stimulation, supernatants are collected to quantify IL-1β production. IL-1β concentrations in the supernatants are determined by ELISA using recombinant human IL-1β to obtain a standard curve. […] The dilution of Capture Antibody used is lot-specific and is determined empirically. […] Stop Solution (2 N H2SO4) is then added to the wells and a yellow colour reaction is read at 450 nm with λ correction at 570 nm. Mean absorbance is determined from triplicate data readings and the mean background is subtracted. […]

Compound | concentration (as low as) preventing IL-1-induced collagenase expression (collagenase expression) | also measured
[F][Al]([F])[F] [AIF3] | 100 nM | –
N#CC1=C(N)Oc2c(ccc3ccccc23)C1c1cccc([N+](=O)[O-])c1 (stereo not shown) [LY290181] | 100 nM | –
O=C1c2c(O)ccc(O)c2C(=O)c2c(NCCNCCO)ccc(NCCNCCO)c21 [Mitoxantrone, 9,10-Anthracenedione, 1,4-dihydroxy-5,8-bis[[2-[(2-hydroxyethyl)amino]ethyl]amino]-] | – | IC50 (human fibroblasts): 20 nM
[2H]O[2H] [deuterium oxide] | 100 nM | –
COC1=C2C[C@@H](C)C[C@H](OC)[C@H](O)[C@@H](C)/C=C(\C)[C@H](OC(N)=O)[C@@H](OC)/C=C\C=C(/C)C(=O)NC(=CC1=O)C2=O [geldanamycin] | – | IC50 [1]: 7 nM; IC50 [2]: 27 nM; IC50 [3]: 20 nM
CCOC(=O)CN [glycine ethyl ester] | 100 nM | –
ethylene glycol bis-(succinimidylsuccinate) | 100 nM | –
hexylene glycol | 100 nM | –
